Target: T1, human topoisomerase I (TOP1) (Homo sapiens, UniProt P11387)
T1 sequence (P11387 2-765): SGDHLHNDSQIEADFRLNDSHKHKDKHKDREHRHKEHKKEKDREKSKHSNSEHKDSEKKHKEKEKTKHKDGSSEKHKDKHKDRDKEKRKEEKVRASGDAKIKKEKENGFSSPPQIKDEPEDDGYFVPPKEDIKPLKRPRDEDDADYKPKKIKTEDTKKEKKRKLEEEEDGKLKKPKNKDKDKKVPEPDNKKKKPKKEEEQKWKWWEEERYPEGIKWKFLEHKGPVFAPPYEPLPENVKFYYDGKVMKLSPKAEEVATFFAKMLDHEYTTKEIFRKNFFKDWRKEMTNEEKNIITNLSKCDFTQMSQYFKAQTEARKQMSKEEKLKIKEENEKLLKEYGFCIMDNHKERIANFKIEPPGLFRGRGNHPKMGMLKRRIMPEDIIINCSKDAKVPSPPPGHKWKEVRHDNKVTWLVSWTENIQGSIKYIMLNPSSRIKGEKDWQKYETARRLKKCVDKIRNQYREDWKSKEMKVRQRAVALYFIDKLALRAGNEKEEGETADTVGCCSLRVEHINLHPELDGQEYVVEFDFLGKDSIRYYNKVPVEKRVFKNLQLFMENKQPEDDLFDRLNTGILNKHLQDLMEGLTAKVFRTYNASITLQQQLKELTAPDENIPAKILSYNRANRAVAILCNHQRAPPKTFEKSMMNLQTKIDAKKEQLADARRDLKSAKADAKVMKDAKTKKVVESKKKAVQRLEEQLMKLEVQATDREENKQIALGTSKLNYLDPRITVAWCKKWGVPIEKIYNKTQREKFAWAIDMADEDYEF
Assay: supercoiled plasmid DNA relaxation, agarose gel
Assay type: biochemical

O=C(Nc1ccc(Sc2ccc(N=Nc3c(O)c(S(=O)(=O)O)cc4cc(S(=O)(=O)O)ccc34)cc2)cc1)c1ccc(N=Nc2c(O)c(S(=O)(=O)O)cc3cc(S(=O)(=O)O)ccc23)cc1 [NSC65860]
IC50: 0.89 µM

O=c1c(O)c(-c2cc(O)c(O)c(O)c2)oc2cc(O)cc(O)c12 [myricetin]
IC50: ~10 µM

Source: doi:10.1101/2021.11.16.468530v1 (biorxiv, 2021)
